For series [1], the target named is T1, TLR5 (Homo sapiens, UniProt O60602). Put plainly: cell-based or functional assay.
The test system of series [2] is MUC1 protein in A549 cells. The settings on record: A549 cells, 5.0 μg/ml AcD or 10 μg/ml Chx, no NE.
Description: Confluent A549 cells were incubated in the presence or absence of 5.0 μg/ml of actinomycin (AcD) or 10 μg/ml of cycloheximide (Chx) for 1 hr and either non-treated or treated for 24 hr with 100 nM of NE. MUC1 protein levels in cell lysates (A) and spent media (B) were measured by ELISA. Each bar represents the mean±SEM (n=3). […] (C) Aliquots of spent media obtained from confluent A549 cells were non-treated (0 hr) or treated for 24 hr with 100 nM NE or vehicle control and MUC1 levels in the spent media determined by ELISA. Each bar represents the mean±SEM (n=3).
A549 cells were seeded at 5.0×10^4 cells/well in 24-well plates in Dulbecco's Modified Eagle Medium (DMEM) containing 10% fetal bovine serum (FBS), 100 U/ml penicillin, and 100 μg/ml streptomycin (all from Invitrogen, Carlsbad, Calif.) and incubated at 37° C. in a humidified CO2 incubator. Confluent monolayers were washed with serum-free DMEM and treated with 100 nM (2.6 U/ml) NE or vehicle control (PBS) for 24 hr. In some experiments, the cells were pretreated for 1 hr with 5.0 μg/ml of actinomycin D or 10 μg/ml of cycloheximide prior to NE treatment. Following treatment, cell-conditioned media were collected, and the cells were washed with PBS and lysed with 500 μl/well of PBS containing 1.0% Triton X-100, 1.0% sodium deoxycholate, 1.0% protease inhibitor cocktail, and 2.0 mM phenylmethylsulfonyl fluoride (PMSF). Lysates and conditioned media were incubated for 20 min at 80° C. to inactivate residual NE, insoluble material removed by centrifugation at 14,000×g for 10 min at 4° C., and protein concentrations measured by the procedure of Bradford using bovine serum albumin as standard.
ELISA. A549 cell lysates or cell-conditioned culture media were centrifuged at 10,000×g for 10 min at 4° C., added in triplicate to 96-well ELISA plates (MaxiSorb™, Nalge Nunc, Rochester, N.Y.), and incubated overnight at 4° C. Wells were blocked for 1 hr at room temperature (about 22° C.) with PBS, pH 7.0, containing 10 mg/ml BSA and 50 mg/ml sucrose and washed with PBS containing 0.05% Tween 20 (PBS-T). The samples were reacted for 2 hr at room temperature with 200 μg/ml of primary MUC1 antibody (GP1.4), washed with PBS-T, reacted for 2 hr at room temperature with 200 μg/ml of secondary antibody (peroxidase-conjugated goat antimouse IgG) (KPL, Gaithersburg, Md.), and washed with PBS-T. Bound antibodies were detected with tetramethylbenzidine substrate (SureBlue™, KPL), the substrate reaction stopped with 1 N HCl, and absorbencies at 450 nm measured using a microplate spectrophotometer (Dexall, Gaithersburg, Md.).
Series [3] has as its system IL-8 levels in primary NHBE cells. Put plainly: Flagellin-induced IL-8 levels in MUC1 siRNA-treated primary NHBE cells. The class given is cell-based, human. The settings on record: 10 ng/ml flagellin 6 h, basolateral medium. Here is the method:
(§1) Primary NHBE cells were nucleofected with 1.5 μg of a MUC1 siRNA or a non-targeting control RNA. At 48 h post-nucleofection, total MUC1 protein was determined by immunoblotting as described (20) (A) and cell surface MUC1 was determined by FACS analysis using anti-MUC1 (GP1.4, mouse IgG1, κ, Biomeda) as primary antibody and R-Phycoerythrin-conjugated goat anti-mouse IgG (Santa Cruz) as secondary antibody. Mouse IgG1 (κ isotype, eBioscience) was used as primary antibody to determine threshold fluorescence signal. (B). (C) Cells were stimulated with 10 ng/ml of flagellin for 6 h and IL-8 levels in basolateral medium were measured.
(§2) Macrophages were harvested from BALF or the peritoneal space, and erythrocytes lysed with 10 mM Tris-HCl, pH 7.2 containing 150 mM NH4Cl. Peritoneal macrophages (PM) were harvested after treating mice i.p. with 3% thioglycollate for 3 days. The recovered cells consisted of >95% macrophages as determined by immunofluorescence using the F4/80 macrophage marker (eBioscience). […]
(§3) Mouse KC and TNF-α and human IL-8 were quantified by ELISA using commercially available antibodies (eBioscience; R&D Systems). All samples were analyzed in triplicate and standard curves were performed on each plate.

Series [4] concerns ELAM-1 promoter activity in A549 lung carcinoma cells. Kind of series: ELAM-1 promoter-luciferase assay in A549 cells after MUC1 siRNA transfection. The class given is cell-based, human. The settings on record: 8.0 nM siRNA 24 h, 10 ng/ml flagellin 6 h. The method, then: To assess the effects of endogenous MUC1 expression on NF-κB activation, ELAM-1 promoter activity in A549 lung carcinoma cells following transfection with MUC1 with small interfering RNA (siRNA) duplexes was measured. Inhibition of MUC1 expression was confirmed by FACS analysis following treatment with the MUC1 siRNA but not a control RNA (data not shown).
Referring now to FIG. 3, twenty four hours after transfection with the control RNA or MUC1 siRNA, A549 cells were treated with 10 ng/ml of flagellin or an equivalent amount of the fliC control for 6 hours. Cell lysates were prepared and luciferase activity measured as indicated in the examples section. […]
HEK293T and A549 cells were seeded in 24-well plates at 2×10^5 and 5×10^4 cells/well respectively, incubated overnight, and transfected with the 0.4 μg/well of the NF-κB responsive pELAM-1 promoter-luciferase plasmid and 10 ng/well of the phRL-TK plasmid (Promega) as an internal control using 2 μl/well of Lipofectamine™2000 (Invitrogen) according to the manufacturer's instructions. The cells were incubated for 24 h at 37° C. in 5% CO2, treated with 10 ng/ml PAK flagellin or an equivalent volume of the fliC negative control for 6 h, and relative luciferase activity determined. […] Data are expressed as mean relative luciferase activity±SEM of triplicate or quadruplicate determinations.

For the next series, the system named is MUC1. Kind of series: MUC1 siRNA knockdown of MUC1 expression in primary NHBE cells (immunoblot, FACS). The class given is cell-based, human. The note with it: 1.5 μg siRNA, vs control RNA. Here is the method:
as §1
as §2, with “(eBioscience). Cells were seeded in 24-well tissue culture plates at 1.0×10^5 cells/well in DMEM containing 10% FBS, […], and allowed to adhere for 24 h before flagellin or LPS (PA10, Sigma) treatment.” for “(eBioscience).”
(Immunoblotting shows a protein as a band on a membrane.)

Series [5] has as its system MUC1 transcription (MEK/ERK signaling pathway). Put plainly: TNF-α induced MUC1 expression in A549 lung epithelial cells. The class given is cell-based, human. The text has this:
TNF-α induces MUC1 expression through a MAP kinase pathway in human lung epithelial cells. TNF-α stimulates MUC1 transcription and protein expression in lung epithelial cells. Activation of MAP kinases and NF-κB was verified using Western blot analysis. […] TNF-α activate all three MAP kinases (ERK, p38, and JNK) as well as NF-κB. […] TNF-α stimulates MUC1 production in A549 cells through transcriptional activation via the MEK/ERK signaling pathway.

Series [6] concerns the target T1, TLR5. Kind of series: Flagellin-driven IL-8 release in HEK293T cells with or without transfected TLR5. Type of series: cell-based. Also on record: V5-His (vector pEF6/V5-His); expressed in transfected cells; host or cells: HEK293T. The method, then: TLR5 mediates flagellin-stimulated innate immune responses. Because TLR5 and MUC1/Muc1 are flagellin receptors and both are expressed by airway macrophages and epithelial cells the relationship between MUC1 and TLR5 in response to flagellin in HEK293T cells stably transfected with a MUC1 expressing plasmid and flagellin-driven IL-8 release was determined following transient transfection with a TLR5 expressing plasmid. HEK293T cells express TLR5 but not MUC1. […] Flagellin-induced increase in IL-8 release was completely abolished in cells co-transfected with MUC1 and TLR5. […] HEK293T cells stably transfected with the pcDNA3.1 empty vector (A) or plasmids encoding the full-length MUC1 or MUC1-ACT (B) were transiently transfected with a TLR5 expression plasmid or empty vector. At 24 h post-transfection, the cells were treated for 6 h with 10 ng/ml of flagellin or PBS, and IL-8 levels in medium were measured. […]
as §3

Series [7] has as its system ELAM-1 promoter (NF-κB activation, TLR5 signaling) in HEK293T cells. Kind of series: ELAM-1 promoter-luciferase reporter assay in HEK293T cells. Type of series: cell-based, human. The settings on record: 10 ng/ml PAK flagellin, 6 h. From the text:
The relationship between TLR5 and MUC1 signaling in response to flagellin was investigated utilizing TLR5-expressing cells in the absence or presence of MUC1 expression. Initially, we screened a number of different airway and non-airway cell lines by Western blotting and/or real-time PCR with the goal of identifying a TLR5+/MUC1− host cells for transfection of the pMUC1 expression plasmid. Referring now to FIG. 1A, (A) HEK293T cells were transfected with pcDNA3.1 empty vector or the pMUC1 expression plasmid. After trypsinization, cells were reacted with normal mouse IgG or mouse anti-MUC1 antibody followed by PE-conjugated goat anti-mouse IgG antibody and examined by FACS analysis. […] Cell lysates were prepared and relative luciferase activity measured as indicated in Materials and Methods. […]
HEK293T and A549 cells were seeded in 24-well plates at 2×10^5 and 5×10^4 cells/well respectively, incubated overnight, and transfected with the 0.4 μg/well of the NF-κB responsive pELAM-1 promoter-luciferase plasmid and 10 ng/well of the phRL-TK plasmid (Promega) as an internal control using 2 μl/well of Lipofectamine™2000 (Invitrogen) according to the manufacturer's instructions. The cells were incubated for 24 h at 37° C. in 5% CO2, treated with 10 ng/ml PAK flagellin or an equivalent volume of the fliC negative control for 6 h, and relative luciferase activity determined. […]

*1 amine or outer side, *2 acyl side, *3 side chain or, on linkers, in order; H or OH if unused. Where a SMILES comes first, the peptide text is derived from it. Bridges are numbered along the chain shown (N, C = ends). Roman numbers before positions name the chains, in order. [ ]: non-standard residue; d: D form. Actinocin(9to1) = Cc1c2oc3c(C)ccc(C(=O)[*:1])c3nc-2c(C(=O)[*:2])c(N)c1=O; NMeV = CN[C@H](C(=O)O)C(C)C; d = 2'-deoxy (DNA); Sar = CNCC(=O)O; r = 2'-OH (RNA)

T1 sequence (O60602 21-858): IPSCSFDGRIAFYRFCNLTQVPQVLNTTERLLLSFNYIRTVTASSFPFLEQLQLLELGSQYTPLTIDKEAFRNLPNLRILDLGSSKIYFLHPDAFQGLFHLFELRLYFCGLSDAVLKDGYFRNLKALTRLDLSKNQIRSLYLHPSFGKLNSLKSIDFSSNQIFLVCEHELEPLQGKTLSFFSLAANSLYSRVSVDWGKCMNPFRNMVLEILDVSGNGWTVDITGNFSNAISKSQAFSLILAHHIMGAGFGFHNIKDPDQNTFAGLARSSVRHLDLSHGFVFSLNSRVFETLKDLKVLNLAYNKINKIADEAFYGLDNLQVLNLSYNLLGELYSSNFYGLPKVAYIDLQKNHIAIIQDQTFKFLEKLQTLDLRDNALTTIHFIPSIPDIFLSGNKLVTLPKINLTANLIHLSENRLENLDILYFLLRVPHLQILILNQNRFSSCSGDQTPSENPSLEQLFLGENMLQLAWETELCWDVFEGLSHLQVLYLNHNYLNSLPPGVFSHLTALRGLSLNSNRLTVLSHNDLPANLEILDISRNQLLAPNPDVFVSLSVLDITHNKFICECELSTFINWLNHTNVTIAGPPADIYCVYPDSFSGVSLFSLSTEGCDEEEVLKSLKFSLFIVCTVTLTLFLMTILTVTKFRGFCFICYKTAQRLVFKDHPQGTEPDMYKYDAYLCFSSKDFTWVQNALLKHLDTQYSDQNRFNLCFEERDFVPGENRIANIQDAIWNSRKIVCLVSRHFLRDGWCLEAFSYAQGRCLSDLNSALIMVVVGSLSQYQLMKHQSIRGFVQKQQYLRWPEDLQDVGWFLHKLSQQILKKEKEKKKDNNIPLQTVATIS

Consider “P. aeruginosa strain K (PAK) flagellin (from UniProt P21184 2-394) (ligand)”, for which, in the series with TLR5 [1], the IL-8 release (HEK293T cells transfected with empty vector, endogenous TLR5; 10 ng/ml flagellin for 6 h vs PBS) worked out at 55 % increase; the IL-8 release (HEK293T cells transiently transfected with TLR5 expression plasmid; 10 ng/ml flagellin for 6 h vs PBS) worked out at 164 % increase; the relative luciferase activity (ELAM-1 promoter-luciferase reporter, HEK293T cells, 10 ng/ml flagellin vs fliC negative control) came to 10 fold.
On to `C[C@@H]1C[C@@H]([C@H](O)CC2CC(=O)NC(=O)C2)C(=O)[C@@H](C)C1` [Chx, cycloheximide], for which the “effect of treatment alone on cellular MUC1 levels” value in series [2] is “did not significantly affect”.
With `Cc1c2oc3c(C)ccc(C(=O)N[C@@H]4C(=O)N[C@H](C(C)C)C(=O)N5CCC[C@H]5C(=O)N(C)CC(=O)N(C)[C@@H](C(C)C)C(=O)O[C@@H]4C)c3nc-2c(C(=O)N[C@@H]2C(=O)N[C@H](C(C)C)C(=O)N3CCC[C@H]3C(=O)N(C)CC(=O)N(C)[C@@H](C(C)C)C(=O)O[C@@H]2C)c(N)c1=O` [AcD, actinomycin D] (I: T[dV]P[Sar][NMeV] / II: T[dV]P[Sar][NMeV]; ester I:1-I:C, II:1-II:C; linker I:N-II:N via Actinocin(9to1)), the “effect of treatment alone on cellular MUC1 levels” value in series [2] is listed as “did not significantly affect”.
Consider “MUC1 siRNA: 21-bp siRNA with a sequence derived from the MUC1 gene (Dharmacon); sense SEQ ID NO: 2, antisense SEQ ID NO: 3 (sense GUUCAGUGCCCAGCUCUACTT; antisense GUAGAGCUGGGCACUGAACTT; sugars from the 5' end r19 d2, backbone not given here)”, for which, in series [3], the “greater flagellin-induced IL-8 levels compared with control RNA” value stood at 50%. For the same molecule, the “effect on flagellin-induced ELAM-1 promoter activity compared with control RNA” value in series [4] is recorded as “significantly increased”. Also, in the series on MUC1 (48 h, FACS), the “decrease in the number of cells with surface MUC1 expression” value stood at 67%. Moreover, the “knockdown of total cellular MUC1 expression” value in the series with MUC1 (48 h post-nucleofection, immunoblot) is “approximately 95%”.
For the molecule TNF-α, the “effect on MUC1 protein and mRNA levels” value in series [5] (human lung epithelial (A549) cells) is “increased both MUC1 protein and mRNA levels”.
As for `N#CC(=C(/N)Sc1ccccc1N)/C(C#N)=C(\N)Sc1ccccc1N` [U0126], the “effect on TNF-α induced MUC1 transcription” value in series [5] (A549 cells, pretreatment with U0126) was “completely blocked”.

B1: PAK flagellin: P. aeruginosa strain K flagellin purified by differential centrifugation, single 50 kDa protein band (protein)
chain: ALTVNTNIASLNTQRNLNNSSASLNTSLQRLSTGSRINSAKDDAAGLQIANRLTSQVNGLNVATKNANDGISLAQTAEGALQQSTNILQRMRDLSLQSANGSNSDSERTALNGEVKQLQKELDRISNTTTFGGRKLLDGSFGVASFQVGSAANEIISVGIDEMSAESLNGTYFKADGGGAVTAATASGTVDIAIGITGGSAVNVKVDMKGNETAEQAAAKIAAAVNDANVGIGAFSDGDTISYVSKAGKDGSGAITSAVSGVVIADTGSTGVGTAAGVTPSATAFAKTNDTVAKIDISTAKGAQSAVLVIDEAIKQIDAQRADLGAVQNRFDNTINNLKNIGENVSAARGRIEDTDFAAETANLTKNQVLQQAGTAILAQANQLPQSVLSLLR
In the case of B1, the “increase in IL-8 release compared with PBS treatment” value with TLR5 [6] (HEK293T cells transfected with TLR5, 10 ng/ml flagellin 6 h) is recorded as 164%; in the series with TLR5 [6] (HEK293T cells transfected with empty vector, 10 ng/ml flagellin 6 h), 55%. The “increase in relative luciferase activity (ELAM-1 promoter) compared with fliC negative control” value in series [7] is given as “greater than 10 fold”.
